Laboratory results as given in patent US12617870B2, “Methods of reversing ticagrelor activity” (SFJ Pharmaceuticals X, LTD., priority 2018, dated 2026).
Where “and” joins values, the source holds several entries; their conditions need not be identical. Equal entries are not always repeated.

How the values were obtained:
[1] = system: PB2452 binding to biotinylated ticagrelor; experiment: Selectivity: competition binding with PB2452 to biotinylated ticagrelor; design: species or system human
Description: The chemical starting point for the development of ticagrelor was adenosine triphosphate (ATP), and ticagrelor retains an adenosine-like core. To confirm the specificity of PB2452 for ticagrelor and ticagrelor active metabolite (TAM), its binding to ATP, ADP, and adenosine was evaluated. […] The selectivity of PB2452 was determined by competition binding with PB2452 to biotinylated ticagrelor.

[2] = PLATO, cited from earlier work; for patients with fatal or life-threatening major bleeding events: patients with ACS, both treatment groups
[3] = Phase 1 healthy volunteer study: pharmacokinetics of total ticagrelor; assay type: in vivo, human
Description: Plasma samples for determining total concentration of ticagrelor and its active metabolite, TAM (or ARC-124910XX) will be collected from subjects in Cohorts 4 through 10 before dosing (within 10 minutes prior to the initiation of the study drug infusion [Hour 0], and up to 48 hours following the initiation of study drug infusion. Specific collection times for each cohort are listed in the table below: […]

[4] = system: platelet aggregation (ticagrelor antiplatelet activity); assay type: in vivo, human; settings: placebo subjects
Description: Platelet function was assessed using light transmission aggregometry (LTA), VerifyNow, and vasodilator stimulated phosphoprotein (VASP) assays before and after 48 hours of ticagrelor administration […] Cohorts 7 to 10 received an 18-gram fixed dose of PB2452 via various infusion regimens or placebo. Infusions of PB2452 in these cohorts were initiated 2 hours after the last ticagrelor pretreatment dose to coincide with the peak concentration of ticagrelor. (Gurbel (2009). Subjects in all cohorts were randomized in a 3:1 ratio to receive PB2452 or placebo. The primary efficacy outcome was the effectiveness of PB2452 in reversing the antiplatelet effect of ticagrelor by analyzing platelet aggregation using light transmission aggregometry at multiple time points before and after PB2452 or placebo administration in ticagrelor pretreated subjects. Secondary efficacy outcomes were the effectiveness of ticagrelor reversal assessed using VerifyNow and the vasodilator stimulated phosphoprotein phosphorylation immunoassay (VASP). The sample size of 64 was based on clinical and practical considerations and not on a formal statistical power calculation. The sample size was considered sufficient to adequately assess the safety, efficacy, and pharmacokinetic profiles of PB2452 and the pharmacokinetic and pharmacodynamic profiles of ticagrelor. Reversal of antiplatelet effect was evaluated by comparing the mean percent of baseline platelet aggregation between PB2452 and placebo using Wilcoxon rank-sum test. Multiplicity was adjusted using the Bonferroni method. Correlations between each pair of the platelet function tests were evaluated using Pearson's correlation and Spearman's rank correlation coefficient. Mean data from subjects receiving placebo were pooled across cohorts for all presentations. Categorical variables are summarized by their frequencies and percentages, and continuous variables are presented with the number of subjects with non-missing data, mean, standard deviation, median, minimum, and maximum. Descriptive statistics are presented for each cohort, and pooled placebo and PB2452 data. For pharmacodynamic data, platelet aggregation results were compared between each cohort and pooled placebo data (cohorts 4 to 6 and cohort 7 to 10 were pooled separately). All analyses were performed with SAS software, version 9.4 (SAS Institute).

Row | inhibition of PB2452 binding to biotinylated ticagrelor [1] | SMILES | further results
1 | No inhibition | Nc1ncnc2c1ncn2[C@@H]1O[C@H](COP(=O)(O)OP(=O)(O)O)[C@@H](O)[C@H]1O [ADP, adenosine diphosphate] | –
2 | No inhibition | Nc1ncnc2c1ncn2[C@@H]1O[C@H](CO)[C@@H](O)[C@H]1O [adenosine] | –
3 | No inhibition | CCCC(=O)Nc1ncnc2c1ncn2[C@@H]1O[C@@H]2COP(=O)(O)O[C@H]2[C@H]1OC(=O)CCC [bucladesine] | –
4 | No inhibition | CSCCNc1nc(SCCC(F)(F)F)nc2c1ncn2[C@@H]1O[C@H](COP(=O)(O)OP(=O)(O)C(Cl)(Cl)P(=O)(O)O)[C@@H](O)[C@H]1O [cangrelor] | –
5 | No inhibition | O=C1CCc2cc(OCCCCc3nnnn3C3CCCCC3)ccc2N1 [cilostazol] | –
6 | – | COC(=O)[C@H](c1ccccc1Cl)N1CCc2sccc2C1 [clopidogrel] | patients with fatal or life-threatening major bleeding events [2]: 5.8%
7 | No inhibition | NS(=O)(=O)c1cc2c(cc1Cl)NC(C1CC3C=CC1C3)NS2(=O)=O (centres unmarked) [cyclothiazide] | –
8 | No inhibition | CC(=O)NC[C@H]1CN(c2ccc(N3CCOCC3)c(F)c2)C(=O)O1 [linezolid] | –
9 | No inhibition | CC[C@H](C)C(=O)O[C@H]1C[C@@H](C)C=C2C=C[C@H](C)[C@H](CC[C@@H]3C[C@@H](O)CC(=O)O3)[C@H]21 [lovastatin] | –
10 | No inhibition | COC(=O)C1=C(C#N)NC(C)=C(C(=O)OC(C)C)C1c1cccc([N+](=O)[O-])c1 (centres unmarked) [nilvadipine] | –
11 | No inhibition | CNC(=O)c1cnn(-c2nc(N)c3ncn([C@@H]4O[C@H](CO)[C@@H](O)[C@H]4O)c3n2)c1 [regadenoson] | –
12 | – | CCCSc1nc(N[C@@H]2C[C@H]2c2ccc(F)c(F)c2)c2nnn([C@@H]3C[C@H](OCCO)[C@@H](O)[C@H]3O)c2n1 [ticagrelor, (1S,2S,3R,5S)-3-[7-{[(1R,2S)-2-(3,4-difluorophenyl)cyclopropyl]amino}-5-(propylthio)-3H-[1,2,3]triazolo[4,5-d]pyrimidin-3-yl]-5-(2-hydroxyethoxy)cyclopentane-1,2-diol] | increase of mean ticagrelor concentrations compared with ticagrelor alone ([3]; PB2452 18 gram dose level with 8- to 16-hour infusions): 5.6 fold; increase of mean concentration of circulating ticagrelor ([3]; in the presence of PB2452 (Cohorts 4-6, FIG. 11B)): 2-5.6 fold; time of peak total ticagrelor concentration after an oral dose ([3]; subjects receiving ticagrelor alone): approximately 2 hours; peak total ticagrelor concentration ([3]; subjects receiving ticagrelor alone, oral dose): 900 ng/mL; suppression of platelet aggregation ([4]; after 48 hours of ticagrelor (180 mg loading + 90 mg twice daily)): ~80% and 80-85%; platelet aggregation remained suppressed after ticagrelor was stopped [4]: 24 h; patients with fatal or life-threatening major bleeding events [2]: 5.8%; patients with fatal or life-threatening bleeding event ([2]; urgent surgery, could not wait three days for ticagrelor to wash out): approximately 50%; patients with major bleeding related to procedures like CABG [2]: approximately 9%; patients with spontaneous major bleeding events not related to any medical procedure [2]: approximately 3%

Row | SMILES | inhibition of PB2452 binding to biotinylated ticagrelor [1] | further results
13 | Nc1ncnc2c1ncn2[C@@H]1O[C@H](COP(=O)(O)OP(=O)(O)OP(=O)(O)O)[C@@H](O)[C@H]1O [ATP, adenosine triphosphate] | No inhibition | –
14 | CC1(C)C(C=C(Cl)Cl)C1C(=O)OC(C#N)c1ccc(F)c(Oc2ccccc2)c1 (centres unmarked) [cyfluthrin] | No inhibition | –
